Results as given in DBAASP.
≈ marks a conversion by molar mass, not a printed value.

Experiments:
Assay in all cases: ≥ marks a high value that may be exact or a test limit, other limits are often not marked, values filed in µg/mL are converted to µM
[1] = test system: Acholeplasma laidlawii A-EF22
Spiroplasma citri R8A2 = test system: Spiroplasma citri R8A2
[2] = test system: Pseudomonas aeruginosa PAK
Staphylococcus aureus = test system: Staphylococcus aureus
[3] = test system: Streptococcus gordonii Challis DL1
[4] = test system: Streptococcus mitis ATCC 903
[5] = test system: Streptococcus mutans UA159
[6] = test system: Streptococcus sanguinis NY101
[7] = test system: Agrobacterium tumefaciens DSM 3129
[8] = test system: Bacillus megaterium QMB 1551
[9] = test system: Bacillus subtilis DSM 347
[10] = test system: Brenneria salicis NCPPB 2530
[11] = test system: Clavibacter michiganensis subsp. insidiosus NCPPB 1109
Escherichia coli BL21AI = test system: Escherichia coli BL21AI
Escherichia coli D31 = test system: Escherichia coli D31
Escherichia coli DC2 = test system: Escherichia coli DC2
[12] = test system: Escherichia coli DSM 10233
[13] = test system: Escherichia coli DSM 1103
Escherichia coli K-12 = test system: Escherichia coli K-12
[14] = test system: Escherichia coli NCTC 9001
[15] = test system: Klebsiella pneumoniae DSM 681
[16] = test system: Klebsiella pneumoniae K6 ATCC 700603
[17] = test system: Micrococcus luteus ATCC 10240
[18] = test system: Pseudomonas syringae pv. tomato NCPPB 1106
[19] = test system: Salmonella enterica subsp. enterica serovar Newport
[20] = test system: Salmonella enterica subsp. enterica serovar Typhimurium ATCC 700408
[21] = test system: Salmonella typhimurium ATCC 23565
Shigella flexneri CP87 = test system: Shigella flexneri CP87
[22] = test system: Sinorhizobium meliloti ZB314
[23] = test system: Staphylococcus aureus USA 300
[24] = test system: Alternaria brassicicola MUCL 20297
Aspergillus fumigatus = test system: Aspergillus fumigatus
Bacillus megaterium MA = test system: Bacillus megaterium MA
Candida albicans = test system: Candida albicans
[25] = test system: Fusarium culmorum MUCL 30162
[26] = test system: Fusarium haematococcum 160.2.2
[27] = test system: Fusarium oxysporum MUCL 909
Micrococcus luteus A270 = test system: Micrococcus luteus A270
[28] = test system: Neurospora crassa CBS 327-54
[29] = test system: Saccharomyces cerevisiae TGY 481 pJM600

Compound `CC(C)C[C@H](NC(=O)[C@H](CC(C)C)NC(=O)[C@H](CCCCN)NC(=O)[C@H](CC(C)C)NC(=O)[C@H](CC(C)C)NC(=O)[C@H](CC(C)C)NC(=O)[C@H](CCCCN)NC(=O)[C@@H](N)CC(C)C)C(=O)N[C@@H](CCCCN)C(=O)O` [LKLLLKLLK] has an MIC [1] of no less than 100 µM and an MIC (Spiroplasma citri R8A2) of no less than 100 µM.
`CC[C@H](C)[C@H](NC(=O)[C@H](Cc1ccccc1)NC(=O)[C@H](Cc1cnc[nH]1)NC(=O)[C@H](CCCCN)NC(=O)[C@@H](NC(=O)[C@@H](N)Cc1ccccc1)[C@@H](C)CC)C(=O)N[C@@H](Cc1cnc[nH]1)C(=O)N[C@@H](CCCN=C(N)N)C(=O)N[C@@H](Cc1ccccc1)C(=O)N[C@@H](CO)C(=O)N[C@@H](C)C(=O)N[C@H](C(=O)N[C@@H](CCCN=C(N)N)C(=O)N[C@@H](Cc1c[nH]c2ccccc12)C(=O)N[C@@H](CCCN=C(N)N)C(=O)N[C@@H](Cc1c[nH]c2ccccc12)C(=O)N[C@@H](CCCN=C(N)N)C(=O)N[C@@H](Cc1c[nH]c2ccccc12)C(=O)N[C@@H](Cc1ccccc1)C(N)=O)[C@@H](C)O` [FIKHFIHRFSATRWRWRWF] showed an MIC [2] of 23.3 µM (≈ 62.5 µg/mL), an MIC (Staphylococcus aureus) of 46.7 µM (≈ 125 µg/mL) and an MIC [3] of 11.9 µM (≈ 32 µg/mL). For the same compound, the MIC [4] was 5.97 µM (≈ 16 µg/mL), the MIC [5] was 2.99 µM (≈ 8 µg/mL) and the MIC [6] was 11.9 µM (≈ 32 µg/mL).
For `CC[C@H](C)[C@H](NC(=O)[C@H](CCCNC(=N)N)NC(=O)[C@@H]1CCCN1C(=O)[C@H](Cc1cnc[nH]1)NC(=O)[C@@H]1CCCN1C(=O)[C@@H]1CCCN1C(=O)[C@H](CCCNC(=N)N)NC(=O)[C@@H]1CCCN1C(=O)[C@H](CCC(N)=O)NC(=O)[C@@H]1CCCN1C(=O)[C@@H](NC(=O)[C@H](Cc1ccc(O)cc1)NC(=O)[C@@H](NC(=O)[C@@H]1CCCN1C(=O)[C@H](CCCNC(=N)N)NC(=O)[C@H](CC(N)=O)NC(=O)[C@H](CC(N)=O)NC(=O)CN)C(C)C)[C@@H](C)CC)C(=O)O` [GNNRPVYIPQPRPPHPRI], the MIC [7] was 0.0949 µM (≈ 0.2 µg/mL), the MIC [8] was no less than 71.1 µM and the MIC [9] was no less than 59.3 µM. It also gave an MIC [10] of 0.0095 µM (≈ 0.02 µg/mL), an MIC [11] of 23.7 µM (≈ 50 µg/mL) and an MIC (Escherichia coli BL21AI) of 0.465 µM (≈ 0.98 µg/mL). For the same compound, the MIC (Escherichia coli D31) was 30.4 µM (≈ 64 µg/mL), the MIC (Escherichia coli DC2) was 1.85 µM (≈ 3.91 µg/mL) and the MIC [12] was 0.925 µM (≈ 1.95 µg/mL). The MIC [13] was 0.925 µM (≈ 1.95 µg/mL), the MIC (Escherichia coli K-12) was no less than 100 µM and the MIC [14] was 0.0474 µM (≈ 0.0999 µg/mL). The MIC [15] was 7.41 µM (≈ 15.6 µg/mL), the MIC [16] was 30.4 µM (≈ 64 µg/mL) and the MIC [17] was 14.8 µM (≈ 31.3 µg/mL). It also gave an MIC [18] of 0.0949 µM (≈ 0.2 µg/mL), an MIC [19] of 0.0949 µM (≈ 0.2 µg/mL) and an MIC [20] of 0.949 µM (≈ 2 µg/mL). The MIC [21] was 0.0474 µM (≈ 0.0999 µg/mL), the MIC (Shigella flexneri CP87) was 0.0474 µM (≈ 0.0999 µg/mL) and the MIC [22] was 0.0474 µM (≈ 0.0999 µg/mL). The MIC [23] was no less than 100 µM.
In the case of `CC[C@H](C)[C@H](NC(=O)[C@H](CCCN=C(N)N)NC(=O)[C@H](CCC(=O)O)NC(=O)[C@H](CC(=O)O)NC(=O)CNC(=O)[C@H](CCCN=C(N)N)NC(=O)[C@H](CC(C)C)NC(=O)[C@@H](NC(=O)[C@H](CCC(=O)O)NC(=O)[C@H](Cc1ccccc1)NC(=O)[C@@H]1CSSC[C@H](NC(=O)[C@H](CCCCN)NC(=O)[C@H](CCSC)NC(=O)[C@@H](NC(=O)[C@H](CCC(=O)O)NC(=O)[C@@H](NC(=O)[C@H](CC(=O)O)NC(=O)CNC(=O)[C@H](CCCCN)NC(=O)[C@H](CC(N)=O)NC(=O)[C@H](CCSC)NC(=O)[C@@H]2CCCN2C(=O)[C@H](CO)NC(=O)[C@H](CC(N)=O)NC(=O)[C@@H](NC(=O)[C@@H]2CCCN2C(=O)[C@@H](N)CC(C)C)C(C)C)[C@@H](C)O)C(C)C)C(=O)N[C@@H]([C@@H](C)CC)C(=O)N[C@@H](C(C)C)C(=O)N[C@@H](CCC(=O)O)C(=O)N[C@@H](C(C)C)C(=O)N[C@@H]([C@@H](C)CC)C(=O)N[C@@H](CO)C(=O)N[C@@H](CC(=O)O)C(=O)N[C@@H]([C@@H](C)O)C(=O)N[C@@H](CC(C)C)C(=O)N[C@@H](CO)C(=O)N[C@@H](CCCCN)C(=O)N2CCC[C@H]2C(=O)N[C@@H](CO)C(=O)N2CCC[C@H]2C(=O)N[C@@H](CCSC)C(=O)N2CCC[C@H]2C(=O)N[C@@H](C(C)C)C(=O)N[C@@H](CO)C(=O)N[C@@H](CCCCN)C(=O)N[C@@H](CCC(=O)O)C(=O)N1)[C@@H](C)O)C(=O)N[C@@H](CC(C)C)C(=O)N[C@@H](CO)C(=O)N[C@H](C(=O)N[C@@H](CC(C)C)C(=O)N[C@@H](CCCN=C(N)N)C(=O)N[C@@H](Cc1cnc[nH]1)C(=O)N[C@@H](CCC(N)=O)C(=O)N[C@@H](CC(N)=O)C(=O)N[C@@H](CC(C)C)C(=O)N[C@@H](CC(C)C)C(=O)N[C@@H](CCCCN)C(=O)N[C@@H](CCC(=O)O)C(=O)N[C@@H](CC(C)C)C(=O)N[C@@H](CCC(N)=O)C(=O)N[C@@H](CC(=O)O)C(=O)N[C@@H](CC(C)C)C(=O)N[C@@H](C)C(=O)N[C@@H](CC(C)C)C(=O)N[C@@H](CCC(N)=O)C(=O)NCC(=O)N[C@@H](C)C(=O)N[C@@H](CCCCN)C(=O)N[C@@H](CCC(=O)O)C(=O)N[C@@H](CCCN=C(N)N)C(=O)N[C@H](C(=O)N[C@@H](Cc1cnc[nH]1)C(=O)N[C@@H](CCC(N)=O)C(=O)N[C@@H](CCC(N)=O)C(=O)O)[C@@H](C)O)[C@@H](C)CC` [LPVNSPMNKGDTEVMKCIVEVISDTLSKPSPMPVSKECFETLRGDERILSILRHQNLLKELQDLALQGAKERTHQQ], the MIC [24] is reported as 3 µM (≈ 25.8 µg/mL), the MIC (Aspergillus fumigatus) is reported as 5 µM (≈ 42.9 µg/mL) and the MIC (Bacillus megaterium MA) is reported as 0.2 µM (≈ 1.72 µg/mL). For the same compound, the MIC (Candida albicans) was 10 µM (≈ 85.8 µg/mL), the MIC [25] was 1 µM (≈ 8.58 µg/mL) and the MIC [26] was 1 µM (≈ 8.58 µg/mL). The MIC [27] was 10 µM (≈ 85.8 µg/mL), the MIC (Micrococcus luteus A270) was 2 µM (≈ 17.2 µg/mL) and the MIC [28] was 3 µM (≈ 25.8 µg/mL). It also gave an MIC [29] of 10 µM (≈ 85.8 µg/mL).
